We go through seven molecules from ChEMBL document CHEMBL1141260, “Biologically active indole alkaloids from Kopsia arborea” (J Nat Prod, 2007).

Holding throughout (type): functional, cell-based
A short description of experiment [1]: Cytotoxicity against vincristine-resistant human KB/VJ300 cells in presence of 0.1 ug/mL vincristine.
The next experiment relates to KB. Put plainly: Cytotoxicity against vincristine-sensitive human KB cells.
A short description of experiment [2]: Cytotoxicity against vincristine-resistant human KB/VJ300 cells.
Another experiment deals with Jurkat. Briefly: Cytotoxicity against human Jurkat cells.

Values after ≈ are worked out from the molar mass of the structure shown.

What is called IC50 is the concentration that inhibits the measured activity by half. As to `COC(=O)C1=C2Nc3ccccc3[C@]23CCN2CC[C@H]1[C@H]([C@H](C)OC)[C@@H]23`, the 50% inhibitory concentration (IC50) in experiment [1] is 26.8 µM; in the experiment with KB, over 25 µg/mL; in experiment [2], over 25 µg/mL; in the experiment with Jurkat, over 25 µg/mL.

For the molecule `COC(=O)C1=C2Nc3ccccc3[C@]23CCN2CC[C@H]1[C@H]([C@@H](C)OC)[C@@H]23`, the half-maximal inhibitory concentration (IC50) in experiment [1] was 27.1 µM; in the experiment with KB, over 25 µg/mL; in experiment [2], over 25 µg/mL; with Jurkat, over 25 µg/mL.

For `CC[C@]12CCCNC13/C(=C\C(=O)OC)c1ccccc1N3C(=O)CC2` (some centres not stated) [ARBOLOSCINE], the half-maximal inhibitory concentration (IC50) was found to be 11.2 µM in experiment [1], 15 µg/mL (≈ 44.1 µM) in the experiment on KB and 11 µg/mL (≈ 32.3 µM) in experiment [2].

Turning to `C/C=C1/CN2CCc3c([nH]c4ccccc34)[C@H]2C[C@@H]1C(C)=O` [ARBORICINE], the IC50 is 36.7 µM in experiment [1], over 25 µg/mL in the experiment with KB, over 25 µg/mL in experiment [2] and over 25 µg/mL with Jurkat.

As for `C/C=C1\[C@@H](C(C)=O)CCN2CCc3c([nH]c4ccccc34)[C@H]12` [ARBORICININE], the concentration for half-maximal inhibition (IC50) in experiment [1] was 31.3 µM; in the experiment on KB, over 25 µg/mL; in experiment [2], over 25 µg/mL; with Jurkat, over 25 µg/mL.

For the molecule `C=C1C2=Nc3ccccc3[C@@]23CCN2C/C(=C/C)[C@@H]1C[C@H]23` [VALPARICINE], the 50% inhibitory concentration (IC50) in experiment [1] was determined as 1.67 µM; with KB, 3.6 µg/mL (≈ 13 µM); in experiment [2] it was 0.75 µg/mL (≈ 2.71 µM); in the experiment on Jurkat, 0.25 µg/mL (≈ 0.905 µM).

`CC[C@]12CCCN3CC[C@]4(C(=C(C(=O)OC)C1)Nc1ccccc14)[C@@H]32` [VINCADIFFORMINE]: the IC50 in experiment [1] amounted to 13.3 µM; in the experiment with KB, 10.2 µg/mL (≈ 30.1 µM); in experiment [2], 6.3 µg/mL (≈ 18.6 µM); in the experiment with Jurkat it was 21.8 µg/mL (≈ 64.4 µM).
